Experimental findings from PubChem BioAssay AID602130 (Sanford-Burnham Center for Chemical Genomics, 2011) are described below.

The assay addresses Glucose-6-phosphate 1-dehydrogenase (Homo sapiens) (UniProt P11413). In words: human G6PD enzyme inhibition selectivity, SAR follow-up, selectivity assay for PfG6PD antimalarial inhibitor project, biochemical, fluorescence, dose response, set 3 (AID 602130). The following applies: NADPH resazurin-diaphorase fluorescence. (The colour change of resazurin is a common sign of viable cells or microbes.)

The source made the active and inactive calls.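 Rule for the calls: active = IC50 at or below 20 µM; inactive = the rest.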

Chain of Glucose-6-phosphate 1-dehydrogenase (Homo sapiens) (P11413 whole entry, looked up): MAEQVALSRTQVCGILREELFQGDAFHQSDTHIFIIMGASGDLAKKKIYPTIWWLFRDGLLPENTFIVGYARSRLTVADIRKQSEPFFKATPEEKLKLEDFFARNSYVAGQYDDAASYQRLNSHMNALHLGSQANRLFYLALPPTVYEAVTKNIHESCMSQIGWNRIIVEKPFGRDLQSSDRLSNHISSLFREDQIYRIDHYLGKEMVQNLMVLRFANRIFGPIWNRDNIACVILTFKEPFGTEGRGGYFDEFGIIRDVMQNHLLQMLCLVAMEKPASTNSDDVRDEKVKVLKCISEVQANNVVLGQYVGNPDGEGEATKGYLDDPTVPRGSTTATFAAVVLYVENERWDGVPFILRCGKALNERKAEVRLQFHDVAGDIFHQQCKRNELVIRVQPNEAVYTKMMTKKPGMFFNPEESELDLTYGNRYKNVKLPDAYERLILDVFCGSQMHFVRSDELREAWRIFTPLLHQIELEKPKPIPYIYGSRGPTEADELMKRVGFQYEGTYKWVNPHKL

What is called IC50 is the concentration that inhibits the measured activity by half. Consider `CCCN1CCCC1CNC(=O)c1ccc2c(c1)NC(=O)/C(=C/c1ccccc1F)S2` (centres undefined), for which the IC50 is > 80 µM (inactive).

In the case of `CCN1CCC[C@H]1CNC(=O)c1ccc2c(c1)NC(=O)/C(=C/c1ccccc1F)S2`, the IC50 was > 80 µM (inactive).

Take `NCCNC(=O)c1ccc2c(c1)NC(=O)c1ccccc1S2`: the IC50 was > 80 µM (inactive).

In the case of `CC(C)(C)OC(=O)N1CCCC1CNC(=O)c1ccc2c(c1)NC(=O)/C(=C/c1ccccc1F)S2` (centres undefined), the IC50 was > 80 µM (inactive).

`CCN1CCCC1CNC(=O)c1ccc2c(c1)NC(=O)/C(=C/c1c(F)cccc1F)S2` (centres undefined): the IC50 is > 80 µM (inactive).

With `CCC(C)N1CCCC1CNC(=O)c1ccc2c(c1)NC(=O)c1ccccc1S2` (centres undefined), the IC50 was > 80 µM (inactive).

On to `CCN1CCC[C@H]1CNC(=O)c1ccc2c(c1)NC(=O)c1ccccc1S2`, for which the IC50 was > 80 µM (inactive).

Consider `O=C(NCCN1CCOCC1)c1ccc2c(c1)NC(=O)c1ccccc1S2`, for which the IC50 is > 80 µM (inactive).

Regarding `CN(C)c1ccccc1CNC(=O)c1ccc2c(c1)NC(=O)/C(=C/c1ccccc1F)S2`, the IC50 is > 80 µM (inactive).

`CCN1CCCC1CNC(=O)c1ccc2c(c1)NC(=O)/C(=C/c1ccc3ccccc3c1)S2` (centres undefined): the IC50 is > 80 µM (inactive).

Consider `NC1CCN(C(=O)c2ccc3c(c2)NC(=O)/C(=C/c2ccccc2F)S3)C1` (centres undefined), for which the IC50 is > 80 µM (inactive).

With `CCN1CCCC1CNC(=O)c1ccc2c(c1)NC(=O)C(Cc1ccccc1F)S2` (centres undefined), the IC50 is > 80 µM (inactive).

For `CCN1CCCC1CNC(=O)c1ccc2c(c1)NC(=O)/C(=C/c1cccc(F)c1)S2` (centres undefined), the IC50 is > 80 µM (inactive).

Turning to `CCN1CCC[C@@H]1CNC(=O)c1ccc2c(c1)NC(=O)/C(=C/c1ccccc1F)S2`, the IC50 is > 80 µM (inactive).

Turning to `O=C(NCCNC1CCCCC1)c1ccc2c(c1)NC(=O)c1ccccc1S2`, the IC50 was > 80 µM (inactive).

As for `CCN1CCCC1CNC(=O)c1ccc2c(c1)NC(=O)/C(=C/c1cccc(F)c1F)S2` (centres undefined), the IC50 was > 80 µM (inactive).

Turning to `CCN(CC)CCCC(C)Nc1ccnc2cc(Cl)ccc12` (centres undefined), the IC50 was > 80 µM (inactive).

With `O=C(NCCN1CCCCC1)c1ccc2c(c1)NC(=O)c1ccccc1S2`, the IC50 was > 80 µM (inactive).

As for `CCN1CCCC1CNC(=O)c1ccc2c(c1)NC(=O)/C(=C/c1ccc(F)cc1)S2` (centres undefined), the IC50 was > 80 µM (inactive).

Turning to `CCN1CCC[C@@H]1CNC(=O)c1ccc2c(c1)NC(=O)c1ccccc1S2`, the IC50 is > 80 µM (inactive).

Take `NC1CCN(C(=O)c2ccc3c(c2)NC(=O)c2ccccc2S3)C1` (centres undefined): the IC50 was > 80 µM (inactive).

Take `CCN(CC)CCNC(=O)c1ccc2c(c1)NC(=O)/C(=C/c1ccccc1F)S2`: the IC50 was > 80 µM (inactive).

With `O=C1Nc2cc(C(=O)NCC3CCCN3)ccc2S/C1=C\c1ccccc1F` (centres undefined), the IC50 is > 80 µM (inactive).

As to `CCC(C)N(CCNC(=O)c1ccc2c(c1)NC(=O)c1ccccc1S2)C1CCCCC1` (centres undefined), the IC50 was > 80 µM (inactive).
